Measurements taken from patent US9133183B2, “Imidazolidinones and analogs exhibiting anti-cancer and anti-proliferative activities” (Deciphera Pharmaceuticals, LLC, priority 2013, dated 2015).
Read-outs that look alike come from different tables or passages of the source.

How the values were obtained:
M-NFS-60 cells = experiment: M-NFS-60 cell proliferation assay (resazurin); assay type: cell-based; details: 67 h incubation
Method in brief: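 Cells kept in medium containing 20 ng/mL mouse recombinant M-CSF. Fluorescence was read at ex 540/em 600 nm, and IC50 was fitted from percent inhibition across a range of inhibitor concentrations.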

[1] = molecular target: c-FMS kinase in THP-1 cells (Homo sapiens (Human), UniProt P07333); experiment: Phospho-FMS ELISA assay in THP-1 cells; assay type: cell-based
Chain of c-FMS kinase in THP-1 cells (P07333 20-972): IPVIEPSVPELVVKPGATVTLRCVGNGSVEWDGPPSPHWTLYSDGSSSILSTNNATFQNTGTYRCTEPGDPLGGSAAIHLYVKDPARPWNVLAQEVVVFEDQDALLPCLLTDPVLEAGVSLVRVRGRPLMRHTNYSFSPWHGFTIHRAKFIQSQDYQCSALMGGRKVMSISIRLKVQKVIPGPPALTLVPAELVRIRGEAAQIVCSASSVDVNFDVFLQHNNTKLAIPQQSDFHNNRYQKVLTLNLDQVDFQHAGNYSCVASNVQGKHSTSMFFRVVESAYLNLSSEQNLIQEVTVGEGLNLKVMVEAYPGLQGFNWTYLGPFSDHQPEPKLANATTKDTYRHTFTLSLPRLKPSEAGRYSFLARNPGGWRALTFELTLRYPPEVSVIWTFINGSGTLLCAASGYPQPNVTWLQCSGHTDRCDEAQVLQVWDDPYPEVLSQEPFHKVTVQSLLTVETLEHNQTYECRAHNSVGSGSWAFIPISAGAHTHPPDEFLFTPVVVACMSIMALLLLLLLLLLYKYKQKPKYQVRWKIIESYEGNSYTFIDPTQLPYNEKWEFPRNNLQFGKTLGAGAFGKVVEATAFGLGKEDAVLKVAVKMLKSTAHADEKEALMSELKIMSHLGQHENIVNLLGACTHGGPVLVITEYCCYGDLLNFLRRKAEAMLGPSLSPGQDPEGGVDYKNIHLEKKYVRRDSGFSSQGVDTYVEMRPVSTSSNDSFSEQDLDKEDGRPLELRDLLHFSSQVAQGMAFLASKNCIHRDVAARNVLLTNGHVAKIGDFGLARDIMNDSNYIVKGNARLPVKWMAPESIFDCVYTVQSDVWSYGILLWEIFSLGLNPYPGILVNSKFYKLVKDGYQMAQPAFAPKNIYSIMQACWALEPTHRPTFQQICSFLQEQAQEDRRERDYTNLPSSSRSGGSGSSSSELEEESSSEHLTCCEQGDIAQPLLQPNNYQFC
Method: THP-1 cells (catalog #TIB-202) were obtained from the ATCC. Briefly, cells were grown in RPMI 1640 supplemented with 10% characterized fetal bovine serum, 1% sodium pyruvate, 1% Penicillin-Streptomycin-Glutamine (PSG) and 55 uM 2-mercaptoethanol (Invitrogen, Carlsbad, Calif.) at 37 degrees Celsius, 5% CO2, 95% humidity. Cells were allowed to expand until reaching 70-95% confluency at which point they were subcultured or harvested for assay use.
A serial dilution of test compound was diluted 1:100 in assay medium (RPMI 1640 supplemented with 10% characterized fetal bovine serum) in a 96 well black clear bottom plate (Corning, Corning, N.Y.). In a separate 96 well black clear bottom plate, one hundred and fifty thousand THP-1 cells were added per well in 100 μL in assay medium. Fifty microliters of diluted compound was then added to the cells. Plates were incubated for 4 hours at 37 degrees Celsius, 5% CO2, 95% humidity. At the end of the incubation period, cells were stimulated with 50 μL of a 100 nM solution of recombinant human M-CSF (catalog #216-MC, R & D Systems, Minneapolis, Minn.) in assay medium and the plate was incubated for 5 minutes at 37 degrees Celsius, 5% CO2, 95% humidity. Lysates were prepared and used to perform the phospho-FMS ELISA as described by the manufacturer (catalog #DYC3268, R & D Systems, Minneapolis, Minn.). GraphPad Prism was used to calculate IC50 values obtained from data generated from the ELISA assay.

osteoclast precursors = experiment: Osteoclast tartrate-resistant acid phosphatase assay; assay type: cell-based; details: Osteoclast, 7-14 days, RANKL and M-CSF
[2] = molecular target: unphosphorylated c-FMS kinase (uFMS, Seq. ID no. 1) (Homo sapiens (Human), UniProt P07333); experiment: uFMS kinase assay (ADP production coupled to pyruvate kinase/lactate dehydrogenase); assay type: biochemical
Chain of unphosphorylated c-FMS kinase (uFMS, Seq. ID no. 1) (P07333 538-972): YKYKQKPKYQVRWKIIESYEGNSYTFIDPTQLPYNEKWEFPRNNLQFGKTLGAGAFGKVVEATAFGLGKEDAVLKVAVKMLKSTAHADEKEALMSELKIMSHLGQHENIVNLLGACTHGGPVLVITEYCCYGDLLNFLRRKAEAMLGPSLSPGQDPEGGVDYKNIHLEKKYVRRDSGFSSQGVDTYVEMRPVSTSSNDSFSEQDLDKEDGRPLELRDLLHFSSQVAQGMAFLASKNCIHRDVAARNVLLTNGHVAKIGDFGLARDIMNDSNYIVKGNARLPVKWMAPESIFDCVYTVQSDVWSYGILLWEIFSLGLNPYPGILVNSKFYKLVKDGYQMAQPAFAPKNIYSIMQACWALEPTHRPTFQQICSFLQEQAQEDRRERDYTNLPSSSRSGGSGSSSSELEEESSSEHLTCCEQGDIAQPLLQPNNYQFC
Method in brief: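 Unphosphorylated FMS (10 nM) with polyE4Y 1 mg/mL and 500 μM ATP in 90 mM Tris pH 7.5, 10 mM MgCl2, 0.2% octyl-glucoside, 1% DMSO. ADP formation was coupled via pyruvate kinase/LDH to NADH oxidation, followed at A340 for 4 h at 30° C.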

[3] = molecular target: unphosphorylated c-KIT kinase (uKIT, Seq. ID no. 2) (Homo sapiens (Human), UniProt P10721); experiment: uKit kinase assay (coupled pyruvate kinase/lactate dehydrogenase); assay type: biochemical; details: enzymatic assay, ATP 2000 μM
Chain of unphosphorylated c-KIT kinase (uKIT, Seq. ID no. 2) (P10721 other isoform, or with tags, fused parts or gaps): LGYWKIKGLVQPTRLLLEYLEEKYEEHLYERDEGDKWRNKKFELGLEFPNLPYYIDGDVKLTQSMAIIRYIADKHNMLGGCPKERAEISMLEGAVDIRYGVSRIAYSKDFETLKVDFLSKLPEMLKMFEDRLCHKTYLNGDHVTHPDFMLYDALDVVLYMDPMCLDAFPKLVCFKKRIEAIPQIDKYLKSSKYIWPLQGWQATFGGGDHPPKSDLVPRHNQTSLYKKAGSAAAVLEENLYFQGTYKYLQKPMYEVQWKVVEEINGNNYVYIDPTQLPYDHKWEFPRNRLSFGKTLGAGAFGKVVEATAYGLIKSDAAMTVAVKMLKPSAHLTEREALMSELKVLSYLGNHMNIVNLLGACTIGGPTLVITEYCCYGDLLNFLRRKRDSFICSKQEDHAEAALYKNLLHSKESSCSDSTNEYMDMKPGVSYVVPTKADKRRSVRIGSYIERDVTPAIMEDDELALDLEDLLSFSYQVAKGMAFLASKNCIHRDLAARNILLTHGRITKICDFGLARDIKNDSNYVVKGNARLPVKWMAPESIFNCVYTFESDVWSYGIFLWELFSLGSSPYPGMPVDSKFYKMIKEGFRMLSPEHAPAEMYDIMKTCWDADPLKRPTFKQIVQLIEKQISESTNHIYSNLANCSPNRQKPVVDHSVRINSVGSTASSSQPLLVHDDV
Method in brief: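 The read-out was a continuous PK/LDH-coupled decrease in NADH absorbance at 340 nm, monitored at 30 °C over 4 h. IC50 came from % inhibition based on rates at 3–4 h. The GST-tagged unphosphorylated KIT (12 nM) was used with polyE4Y substrate, 2000 μM ATP and 10 mM Mg2+ at pH 7.5, with serially diluted compound.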

[4] = 4 h compound, M-CSF stimulation 5 min, read-out: pFMS inhibition in THP-1 cells
[5] = enzymatic assay, ATP 500 μM, read-out: uFMS

| Compound | IC50 (M-NFS-60 cells) | IC50 [1, 4] | IC50 (osteoclast precursors) | IC50 [2, 5] | IC50 [3] | IC50 ([2]; Table 4, read-out: c-FMS IC50) | IC50 [1] | IC50 ([2]; uFMS, enzymatic assay, ATP 500 μM) |
| --- | --- | --- | --- | --- | --- | --- | --- | --- |
| Cn1cc(-c2cc(Oc3ccc(NC(=O)N4CCN(CCOC(F)(F)F)C4=O)nc3)ccn2)cn1 [Example 21, N-(5-((2-(1-methyl-1H-pyrazol-4-yl)pyridin-4-yl)oxy)pyridin-2-yl)-2-oxo-3-(2-(trifluoromethoxy)ethyl)imidazolidine-1-carboxamide] | 10 to 100 nM | 10 to 100 nM | 10 to 100 nM | 10 to 100 nM | 10 to 100 nM |  |  |  |
| COC[C@H](C)N1CCN(C(=O)Nc2ccc(Oc3ccnc(-c4cnn(C)c4)c3)cn2)C1=O [Example 16, (S)-3-(1-methoxypropan-2-yl)-N-(5-((2-(1-methyl-11H-pyrazol-4-yl)pyridin-4-yl)oxy)pyridin-2-yl)-2-oxoimidazolidine-1-carboxamide] | 10 to 100 nM | 10 to 100 nM | < 10 nM | < 10 nM | < 10 nM |  |  |  |
| CC(C)N1CCN(C(=O)Nc2ccc(Oc3ccnc(-c4cnn(C)c4)c3)cn2)C1=O [Example 36, 3-isopropyl-N-(5-((2-(1-methyl-1H-pyrazol-4-yl)pyridin-4-yl)oxy)pyridin-2-yl)-2-oxoimidazolidine-1-carboxamide] | < 10 nM | < 10 nM | < 10 nM | < 10 nM | 10 to 100 nM |  |  |  |
| CCN1CCN(C(=O)Nc2ccc(Oc3ccnc(-c4cnn(C)c4)c3)c(C)n2)C1=O [Example 42, 3-ethyl-N-(6-methyl-5-((2-(1-methyl-1H-pyrazol-4-yl)pyridin-4-yl)oxy)pyridin-2-yl)-2-oxoimidazolidine-1-carboxamide] | 10 to 100 nM | 10 to 100 nM | < 10 nM | < 10 nM | 100 to 1000 nM | 8 nM |  |  |
| Cn1cc(-c2cc(Oc3ccc(NC(=O)N4CCN(C5CCC(F)(F)CC5)C4=O)nc3)ccn2)cn1 [Example 25, 3-(4,4-difluorocyclohexyl)-N-(5-((2-(1-methyl-1H-pyrazol-4-yl)pyridin-4-yl)oxy)pyridin-2-yl)-2-oxoimidazolidine-1-carboxamide] | < 10 nM | 10 to 100 nM | < 10 nM | < 10 nM | < 10 nM |  |  |  |
| CN(C)C(=O)Nc1cc(Oc2ccc(NC(=O)N3CCN(C4CCOCC4)C3=O)nc2)ccn1 [Example 120, N-(5-((2-(3,3-dimethylureido)pyridin-4-yl)oxy)pyridin-2-yl)-2-oxo-3-(tetrahydro-2H-pyran-4-yl)imidazolidine-1-carboxamide] | 10 to 100 nM | 10 to 100 nM | < 10 nM | < 10 nM | 10 to 100 nM |  |  |  |
| Cc1nc(NC(=O)N2CCN(CC(F)(F)F)C2=O)ccc1Oc1ccnc(-c2cnn(C)c2)c1 [Example 43, N-(6-methyl-5-((2-(1-methyl-1H-pyrazol-4-yl)pyridin-4-yl)oxy)pyridin-2-yl)-2-oxo-3-(2,2,2-trifluoroethyl)imidazolidine-1-carboxamide] | < 10 nM | 10 to 100 nM | < 10 nM | < 10 nM | 100 to 1000 nM |  |  |  |
| Cn1cc(-c2cc(Oc3ccc(NC(=O)N4CCN(C(C)(C)C)C4=O)nc3)ccn2)cn1 [Example 34, 3-(tert-butyl)-N-(5-((2-(1-methyl-1H-pyrazol-4-yl)pyridin-4-yl)oxy)pyridin-2-yl)-2-oxoimidazolidine-1-carboxamide] | 10 to 100 nM | < 10 nM | 10 to 100 nM | < 10 nM | < 10 nM |  |  |  |
| Cc1nc(NC(=O)N2CCN(C3COC3)C2=O)ccc1Oc1ccnc(-c2cnn(C)c2)c1 [Example 20, N-(6-methyl-5-((2-(1-methyl-1H-pyrazol-4-yl)pyridin-4-yl)oxy)pyridin-2-yl)-3-(oxetan-3-yl)-2-oxoimidazolidine-1-carboxamide] | 10 to 100 nM | 10 to 100 nM | 10 to 100 nM | 10 to 100 nM | 100 to 1000 nM |  |  |  |
| CCn1cc(-c2cc(Oc3ccc(NC(=O)N4CCN(C5CCOCC5)C4=O)nc3)ccn2)cn1 [Example 4, N-(5-((2-(1-ethyl-1H-pyrazol-4-yl)pyridin-4-yl)oxy)pyridin-2-yl)-2-oxo-3-(tetrahydro-2H-pyran-4-yl)imidazolidine-1-carboxamide] | 10 to 100 nM | < 10 nM | 10 to 100 nM | 10 to 100 nM | 10 to 100 nM |  |  |  |
| Cc1ccc(-c2cc(Oc3ccc(NC(=O)N4CCN(C5CCOCC5)C4=O)nc3)ccn2)cn1 [Example 52, N-(5-((6′-methyl-[2,3′-bipyridin]-4-yl)oxy)pyridin-2-yl)-2-oxo-3-(tetrahydro-2H-pyran-4-yl)imidazolidine-1-carboxamide] | 10 to 100 nM | 100 to 1000 nM | 10 to 100 nM | 10 to 100 nM | 10 to 100 nM |  |  |  |
| CCc1nc(NC(=O)N2CCN(C3CC3)C2=O)ccc1Oc1ccnc(-c2cnn(C)c2)c1 [Example 58, 3-cyclopropyl-N-(6-ethyl-5-((2-(1-methyl-1H-pyrazol-4-yl)pyridin-4-yl)oxy)pyridin-2-yl)-2-oxoimidazolidine-1-carboxamide] | 10 to 100 nM | 10 to 100 nM | 10 to 100 nM | 10 to 100 nM | > 1000 nM |  |  |  |
| CCc1nc(NC(=O)N2CCN(CC(F)(F)F)C2=O)ccc1Oc1ccnc(-c2cnn(C)c2)c1 [Example 56, N-(6-ethyl-5-((2-(1-methyl-1H-pyrazol-4-yl)pyridin-4-yl)oxy)pyridin-2-yl)-2-oxo-3-(2,2,2-trifluoroethyl)imidazolidine-1-carboxamide] | 10 to 100 nM | 100 to 1000 nM | 100 to 1000 nM | 10 to 100 nM | > 1000 nM |  |  |  |
| COCCCN1CCN(C(=O)Nc2ccc(Oc3ccnc(-c4cnn(C)c4)c3)cn2)C1=O [Example 11, 3-(3-methoxypropyl)-N-(5-((2-(1-methyl-1H-pyrazol-4-yl)pyridin-4-yl)oxy)pyridin-2-yl)-2-oxoimidazolidine-1-carboxamide] | 10 to 100 nM | 10 to 100 nM | < 10 nM | 10 to 100 nM | 10 to 100 nM |  |  |  |
| CCN1CCN(C(=O)Nc2ccc(Oc3ccnc(-c4ccc(C5CCN(C)CC5)cc4)c3)c(C)n2)C1=O [Example 61, 3-ethyl-N-(6-methyl-5-((2-(4-(1-methylpiperidin-4-yl)phenyl)pyridin-4-yl)oxy)pyridin-2-yl)-2-oxoimidazolidine-1-carboxamide] | < 10 nM | < 10 nM | < 10 nM | < 10 nM | 100 to 1000 nM |  |  |  |
| COCCCN1CCN(C(=O)Nc2ccc(Oc3ccnc(-c4cnn(C)c4)c3)c(C)n2)C1=O [Example 19, 3-(3-methoxypropyl)-N-(6-methyl-5-((2-(1-methyl-1H-pyrazol-4-yl)pyridin-4-yl)oxy)pyridin-2-yl)-2-oxoimidazolidine-1-carboxamide] | 10 to 100 nM | 10 to 100 nM | 10 to 100 nM | 10 to 100 nM | 10 to 100 nM |  |  |  |
| Cc1nc(NC(=O)N2CCN(C)C2=O)ccc1Oc1ccnc(-c2cnn(C)c2)c1 [Example 41, 3-methyl-N-(6-methyl-5-((2-(1-methyl-1H-pyrazol-4-yl)pyridin-4-yl)oxy)pyridin-2-yl)-2-oxoimidazolidine-1-carboxamide] | 100 to 1000 nM |  | 10 to 100 nM |  | > 1000 nM |  | 10 to 100 nM | 10 to 100 nM |
| Cc1nc(NC(=O)N2CCN(C3CCCCC3)C2=O)ccc1Oc1ccnc(-c2cnn(C)c2)c1 [Example 22, 3-cyclohexyl-N-(6-methyl-5-((2-(1-methyl-1H-pyrazol-4-yl)pyridin-4-yl)oxy)pyridin-2-yl)-2-oxoimidazolidine-1-carboxamide] | < 10 nM | 10 to 100 nM | < 10 nM | < 10 nM | 10 to 100 nM |  |  |  |
| [2H]C([2H])([2H])n1cc(-c2cc(Oc3ccc(NC(=O)N4CCN(CCOC)C4=O)nc3C)ccn2)cn1 [Example 39, 3-(2-methoxyethyl)-N-(6-methyl-5-((2-(1-(trideuteromethyl)-1H-pyrazol-4-yl)pyridin-4-yl)oxy)pyridin-2-yl)-2-oxoimidazolidine-1-carboxamide] | 100 to 1000 nM | 10 to 100 nM | 10 to 100 nM | 10 to 100 nM | 100 to 1000 nM |  |  |  |
